Reference: ChEMBL document CHEMBL3885881, “DrugMatrix”

Species on record: Rattus norvegicus
Assay: DrugMatrix - Regimen: Daily Repeat
Type: toxicity, organism-based, Sprague-Dawley
Parameters: regimen Daily Repeat, gender Male, age 6-8 weeks
Conditions: in vivo, po, route oral GAVAGE, vehicle 100 % WATER; for URIC ACID / ALANINE AMINOTRANSFERASE / ALKALINE PHOSPHATASE / ASPARTATE AMINOTRANSFERASE / BLOOD UREA NITROGEN / CARBON DIOXIDE / CHLORIDE / CHOLESTEROL / CREATINE PHOSPHOKINASE / CREATININE / GLUCOSE / LACTATE DEHYDROGENASE / LIPASE / PHOSPHORUS / POTASSIUM / SODIUM / TOTAL BILIRUBIN / TOTAL PROTEIN: tissue Plasma; for ABSOLUTE BASOPHIL / ABSOLUTE EOSINOPHIL / ABSOLUTE LYMPHOCYTE / ABSOLUTE MONOCYTE / ABSOLUTE SEGMENTED NEUTROPHIL / BASOPHIL / EOSINOPHIL / ERYTHROCYTE COUNT / HEMATOCRIT / HEMOGLOBIN / LEUKOCYTE COUNT / LYMPHOCYTE / MEAN CORPUSCULAR HEMOGLOBIN / MEAN CORPUSCULAR HEMOGLOBIN CONCENTRATION / MEAN CORPUSCULAR VOLUME / MONOCYTE / NEUTROPHIL / NUCLEATED RED BLOOD CELLS: tissue Blood
[1] = 18 mg/kg, 120 h, dose level Low, time 5 day
[2] = 73 mg/kg, 72 h, dose level High, time 3 day
[3] = 73 mg/kg, 120 h, dose level High, time 5 day

CN(C)CCCN1c2ccccc2Sc2ccc(Cl)cc21 [CHLORPROMAZINE]
URIC ACID (18 mg/kg, 72 h, dose level Low, time 3 day): 0.4 mg/dL
ABSOLUTE BASOPHIL [1]: 0 CELLS/uL
ABSOLUTE EOSINOPHIL [1]: 76 CELLS/uL
ABSOLUTE LYMPHOCYTE [1]: 7709.67 CELLS/uL
ABSOLUTE MONOCYTE [1]: 216 CELLS/uL
ABSOLUTE SEGMENTED NEUTROPHIL [1]: 898.33 CELLS/uL
BASOPHIL [1]: 0%
EOSINOPHIL [1]: 0.67%
ERYTHROCYTE COUNT [1]: 5.62 x10E6/uL
HEMATOCRIT [1]: 36.23%
HEMOGLOBIN [1]: 13.87 G/DL
LEUKOCYTE COUNT [1]: 8.9 x10E3/uL
LYMPHOCYTE [1]: 87%
MEAN CORPUSCULAR HEMOGLOBIN [1]: 24.7 pg
MEAN CORPUSCULAR HEMOGLOBIN CONCENTRATION [1]: 38.27 G/DL
MEAN CORPUSCULAR VOLUME [1]: 64.5 fL
MONOCYTE [1]: 2.33%
NEUTROPHIL [1]: 10%
NUCLEATED RED BLOOD CELLS [1]: 0 /100WBC
ALANINE AMINOTRANSFERASE [1]: 54.67 u/L
ALKALINE PHOSPHATASE [1]: 255.67 u/L
ASPARTATE AMINOTRANSFERASE [1]: 80.33 u/L
BLOOD UREA NITROGEN [1]: 14.33 mg/dL
CARBON DIOXIDE [1]: 29.33 mmol/L
CHLORIDE [1]: 102.33 MEQ/L
CHOLESTEROL [1]: 84.67 mg/dL
CREATINE PHOSPHOKINASE [1]: 218.67 u/L
CREATININE [1]: 0.12 mg/dL
GLUCOSE [1]: 141.33 mg/dL
LACTATE DEHYDROGENASE [1]: 69.67 u/L
LIPASE [1]: 9 u/L
PHOSPHORUS [1]: 11.6 mg/dL
POTASSIUM [1]: 5.95 MEQ/L
SODIUM [1]: 145.57 MEQ/L
TOTAL BILIRUBIN [1]: 0.13 mg/dL
URIC ACID [1]: 0.6 mg/dL
ABSOLUTE BASOPHIL [2]: 0 CELLS/uL
ABSOLUTE EOSINOPHIL [2]: 0 CELLS/uL
ABSOLUTE LYMPHOCYTE [2]: 7383 CELLS/uL
ABSOLUTE MONOCYTE [2]: 208 CELLS/uL
ABSOLUTE SEGMENTED NEUTROPHIL [2]: 342.33 CELLS/uL
BASOPHIL [2]: 0%
EOSINOPHIL [2]: 0%
ERYTHROCYTE COUNT [2]: 5.6 x10E6/uL
HEMATOCRIT [2]: 35.37%
HEMOGLOBIN [2]: 13.77 G/DL
LEUKOCYTE COUNT [2]: 7.93 x10E3/uL
LYMPHOCYTE [2]: 92.33%
MEAN CORPUSCULAR HEMOGLOBIN [2]: 24.63 pg
MEAN CORPUSCULAR HEMOGLOBIN CONCENTRATION [2]: 38.93 G/DL
MEAN CORPUSCULAR VOLUME [2]: 63.17 fL
MONOCYTE [2]: 3%
NEUTROPHIL [2]: 4.67%
NUCLEATED RED BLOOD CELLS [2]: 0 /100WBC
ALANINE AMINOTRANSFERASE [2]: 56 u/L
ALKALINE PHOSPHATASE [2]: 291.33 u/L
ASPARTATE AMINOTRANSFERASE [2]: 84 u/L
BLOOD UREA NITROGEN [2]: 14.33 mg/dL
CARBON DIOXIDE [2]: 37.67 mmol/L
CHLORIDE [2]: 101 MEQ/L
CHOLESTEROL [2]: 99 mg/dL
CREATINE PHOSPHOKINASE [2]: 176.33 u/L
CREATININE [2]: 0.27 mg/dL
GLUCOSE [2]: 154.67 mg/dL
LACTATE DEHYDROGENASE [2]: 52.67 u/L
LIPASE [2]: 12 u/L
PHOSPHORUS [2]: 8.2 mg/dL
POTASSIUM [2]: 5.02 MEQ/L
SODIUM [2]: 145.37 MEQ/L
TOTAL BILIRUBIN [2]: 0.13 mg/dL
TOTAL PROTEIN [2]: 5.7 G/DL
URIC ACID [2]: 0.4 mg/dL
ABSOLUTE BASOPHIL [3]: 0 CELLS/uL
ABSOLUTE EOSINOPHIL [3]: 148.67 CELLS/uL
ABSOLUTE LYMPHOCYTE [3]: 10432 CELLS/uL
ABSOLUTE MONOCYTE [3]: 268.67 CELLS/uL
ABSOLUTE SEGMENTED NEUTROPHIL [3]: 584 CELLS/uL
BASOPHIL [3]: 0%
EOSINOPHIL [3]: 1.33%
ERYTHROCYTE COUNT [3]: 6.19 x10E6/uL
HEMATOCRIT [3]: 38.2%
HEMOGLOBIN [3]: 14.83 G/DL
LEUKOCYTE COUNT [3]: 11.43 x10E3/uL
LYMPHOCYTE [3]: 91%
MEAN CORPUSCULAR HEMOGLOBIN [3]: 23.93 pg
MEAN CORPUSCULAR HEMOGLOBIN CONCENTRATION [3]: 38.87 G/DL
MEAN CORPUSCULAR VOLUME [3]: 61.63 fL
MONOCYTE [3]: 2.33%
NEUTROPHIL [3]: 5.33%
NUCLEATED RED BLOOD CELLS [3]: 0 /100WBC
ALANINE AMINOTRANSFERASE [3]: 61.67 u/L
ALKALINE PHOSPHATASE [3]: 321.67 u/L
ASPARTATE AMINOTRANSFERASE [3]: 110.67 u/L
BLOOD UREA NITROGEN [3]: 24.67 mg/dL
CARBON DIOXIDE [3]: 27.67 mmol/L
CHLORIDE [3]: 103.33 MEQ/L
CHOLESTEROL [3]: 87.33 mg/dL
CREATINE PHOSPHOKINASE [3]: 231.67 u/L
CREATININE [3]: 0.25 mg/dL
GLUCOSE [3]: 142.33 mg/dL
LACTATE DEHYDROGENASE [3]: 88.67 u/L
LIPASE [3]: 10.33 u/L
PHOSPHORUS [3]: 9.27 mg/dL
POTASSIUM [3]: 5.11 MEQ/L
SODIUM [3]: 145.67 MEQ/L
TOTAL BILIRUBIN [3]: 0.17 mg/dL
TOTAL PROTEIN [3]: 6.07 G/DL
URIC ACID [3]: 0.43 mg/dL
